In EP0114002B1, “Benzothiopyrano(4,3,2,-cd)indazoles, their pharmaceutical compositions and methods for their production” (WARNER-LAMBERT COMPANY, priority 1983, dated 1984):
One block for each compound: values may come before it.

Columns and labels:
[1] = tested on: lymphocytic leukemia P388; experiment: in vivo lymphocytic leukemia P388 test; set-up: species or system mice; conditions: Mus musculus, P388, ip, 120 h, read-out: P388 in vivo T/C × 100; for response vs control in vivo at 6.25 mg/kg: Dose 6.25 mg/kg intraperitoneally once daily for five days; for response vs control in vivo at 12.5 mg/kg: Dose 12.50 mg/kg intraperitoneally once daily for five days
Procedure, shortened: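 CD2F mice, 6-7 per group, inoculated IP with P388 leukemia ascitic cells, then dosed IP once daily for five consecutive days at various doses. Survival and weights tracked for 30 days; activity expressed as treated/control survival time ×100, with ≥125 as efficacy criterion. Deaths of all animals within four days flagged as toxic.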

HCT-8 cells = experiment: in vitro proliferating human colon adenocarcinoma (HCA) cell screen; type: cell-based; conditions: Table 1, 60 to 65 hours with compound, 50% inhibition of growth, read-out: HCA—3 in vitro ID50
Procedure, shortened: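 HCT-8 cells grown 48 h at 37 °C in RPMI 1640/10% FCS, then exposed to compound for a further 60–65 h. Nuclei counted by Coulter counter after lysis; percent growth per concentration gives ID50 as molar concentration causing 50% growth inhibition.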

L1210 cells = experiment: L1210 murine leukemia cell growth inhibition in vitro; type: cell-based; conditions: Mus musculus, 72 h, Table 1, three days incubation, 50% inhibition of growth, read-out: L1210 in vitro ID50
Procedure, shortened: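 Murine L1210 leukemia cells (3 x 10^4 cells/ml) in RPMI 1640 with 5% FBS were exposed to drug dilutions for 3 days at 37 °C and 5% CO2. Cells were then Coulter-counted, growth was expressed relative to solvent and medium controls, and ID50 was given in mol/L.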

[2] = tested on: Penicillium avellaneum M2988; experiment: in vitro antibacterial/antifungal (ABF) agar-disk diffusion test; type: cell-based; conditions: Hamigera avellanea, 3 mg/ml, read-out: ABF Zone Diameter (cont. in mg/ml) P. Avell-aneum
Escherichia coli 04863 = experiment: as above; type: cell-based; conditions: read-out: ABF Zone Diameter (cont. in mg/ml) E. Coli
[3] = tested on: Aerobacter aerogenes 0126; experiment: as above; type: cell-based; conditions: Klebsiella aerogenes, read-out: ABF Zone Diameter (cont. in mg/ml) A. Aero-genes
[4] = tested on: Streptococcus faecalis 05045; experiment: as above; type: cell-based; conditions: Enterococcus faecalis, AM-09 medium, read-out: ABF Zone Diameter (cont. in mg/ml) S. Fae-calis
Bacillus subtilis 04555 = experiment: as above; type: cell-based; conditions: 0.5 mg/ml, read-out: ABF Zone Diameter (cont. in mg/ml) B. Sub-tilis

IC50 (HCT-8 cells): 480 nM | IC50 (L1210 cells): 400 nM
Structure (SMILES): OCCNCCNc1ccc2c3c(nn2CCNCCO)-c2ccccc2Sc13 [CH2CH2NHCH2CH2OH / NHCH2CH2NHCH2CH2OH, 2-[[2-[5-[[2-[(2-Hydroxyethyl)amino]ethyl]amino]-2H[1]benzothiopyrano[4,3,2-cd]indazol-2-yl]ethyl]amino]ethanol]
response vs control in vivo at 0.75 mg/kg ([1]; Dose 0.75 mg/kg intraperitoneally once daily for five days): 146% | response vs control in vivo at 0.78 mg/kg ([1]; Dose 0.78 mg/kg intraperitoneally once daily for five days): 153% | response vs control in vivo at 1.5 mg/kg ([1]; Dose 1.50 mg/kg intraperitoneally once daily for five days): 155% | response vs control in vivo at 1.56 mg/kg ([1]; Dose 1.56 mg/kg intraperitoneally once daily for five days): 180% | response vs control in vivo at 3 mg/kg ([1]; Dose 3.00 mg/kg intraperitoneally once daily for five days): 187% | response vs control in vivo at 3.12 mg/kg ([1]; Dose 3.12 mg/kg intraperitoneally once daily for five days): 176% | response vs control in vivo at 6 mg/kg ([1]; Dose 6.00 mg/kg intraperitoneally once daily for five days): 218% | response vs control in vivo at 6.25 mg/kg [1]: 195% | response vs control in vivo at 12 mg/kg ([1]; Dose 12.00 mg/kg intraperitoneally once daily for five days): 270% | response vs control in vivo at 12.5 mg/kg [1]: 271% | zone of inhibition at 3000 µg/mL [2]: 0 mm | zone of inhibition at 500 µg/mL (Escherichia coli 04863; 0.5 mg/ml): 14 mm | zone of inhibition at 500 µg/mL ([3]; 0.5 mg/ml): 14 mm | zone of inhibition at 3000 µg/mL ([4]; 3 mg/ml): 0 mm | zone of inhibition at 500 µg/mL (Bacillus subtilis 04555): 15 mm

IC50 (HCT-8 cells): 100 nM | IC50 (L1210 cells): 20 nM
Structure (SMILES): O=[N+]([O-])c1ccc2c3c(nn2CCNCCO)-c2ccccc2Sc13 [CH2CH2NHCH2CH2OH / NO2, 2-[[2-(5-Nitro-2H[1]benzothiopyrano[4,3,2-cd]indazol-2-yl)ethyl]amino]ethano]
response vs control in vivo at 6.25 mg/kg [1]: 148% | response vs control in vivo at 12.5 mg/kg [1]: 150% | response vs control in vivo at 25 mg/kg ([1]; Dose 25.00 mg/kg intraperitoneally once daily for five days): 197% | zone of inhibition at 3000 µg/mL [2]: 0 mm | zone of inhibition at 100 µg/mL (Escherichia coli 04863; 0.1 mg/ml): 16 mm | zone of inhibition at 100 µg/mL ([3]; 0.1 mg/ml): 16 mm | zone of inhibition at 500 µg/mL ([4]; 0.5 mg/ml): 15 mm | zone of inhibition at 500 µg/mL (Bacillus subtilis 04555): 18 mm
